The record followed here is patent US8729271B2, “Glycine transporter inhibiting substances” (Taisho Pharmaceutical Co., Ltd, priority 2010, dated 2014).

The target of series [1] is T1, human type 1 glycine transporter (GlyT1) (Homo sapiens, UniProt P48067).
T1 construct: Used in the experiment were T98G cells (glioma cells) developing a human type 1 glycine transporter of (GlyT1); endogenous in cells; host or cells: T98G human glioma cells
T1 sequence (P48067 1-706): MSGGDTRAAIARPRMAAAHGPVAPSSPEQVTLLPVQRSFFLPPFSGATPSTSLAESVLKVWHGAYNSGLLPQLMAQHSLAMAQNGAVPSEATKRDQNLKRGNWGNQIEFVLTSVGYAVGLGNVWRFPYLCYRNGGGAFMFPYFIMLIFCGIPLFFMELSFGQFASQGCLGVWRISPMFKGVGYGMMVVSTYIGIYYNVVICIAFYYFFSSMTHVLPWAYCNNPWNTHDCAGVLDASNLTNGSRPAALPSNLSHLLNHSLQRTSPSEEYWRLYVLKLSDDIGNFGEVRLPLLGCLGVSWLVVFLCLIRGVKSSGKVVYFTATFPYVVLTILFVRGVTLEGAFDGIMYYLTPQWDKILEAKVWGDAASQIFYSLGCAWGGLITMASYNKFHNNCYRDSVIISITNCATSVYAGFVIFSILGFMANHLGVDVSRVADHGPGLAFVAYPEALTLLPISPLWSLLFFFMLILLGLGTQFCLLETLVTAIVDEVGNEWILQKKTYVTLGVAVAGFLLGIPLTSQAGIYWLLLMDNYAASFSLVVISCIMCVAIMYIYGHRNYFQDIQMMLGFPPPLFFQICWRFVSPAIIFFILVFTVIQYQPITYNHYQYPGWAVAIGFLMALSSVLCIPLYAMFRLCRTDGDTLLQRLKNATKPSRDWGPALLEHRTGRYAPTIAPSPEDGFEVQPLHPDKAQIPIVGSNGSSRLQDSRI
The series is described as follows: Glycine uptake inhibition experiment ([3H]glycine uptake in T98G cells). Format: cell-based. The following applies: T98G glioma cells; [3H]glycine 250 nM; 10-min pretreatment; 15 min at room temperature; read-out: glycine uptake inhibiting activity (IC50). How it is done:
A glycine uptake inhibition experiment was conducted in accordance with the method described in Neuron, 8, 927-935, 1992. Used in the experiment were T98G cells (glioma cells) developing a human type 1 glycine transporter of (GlyT1). The T98G cells were seeded in a 96-well plate at a density of 2.0×10^4 cells per well and cultured overnight in a CO2 incubator. The test substance was first dissolved in a 100% DMSO solution and then dissolved in a 10 mM HEPES buffer solution (pH 7.4) supplemented with 150 mM sodium chloride, 1 mM calcium chloride, 5 mM potassium chloride, 1 mM magnesium chloride, 10 mM glucose, and 0.2% bovine serum albumin. After removing the cell culture medium, the test substance was subjected to a 10-min pretreatment. Thereafter, the test substance and [^3H] glycine (final concentration: 250 nM) were added to the cells and reaction was performed at room temperature for 15 minutes. After the end of the reaction, the extracellular fluid was aspirated with a manifold to remove the excess marker glycine present outside of the cells; thereafter, the cells were lysed with an aqueous solution of 0.5 M sodium hydroxide. The glycine content in the cells was determined by measuring the radioactivity in the cell lysate with a liquid scintillation counter. With the amount of glycine uptake in the presence of 10 μM ALX5407 being referred to as the nonspecific uptake, the amount of specific uptake was calculated by subtracting the amount of nonspecific uptake from the total amount of uptake in the absence of 10 μM ALX5407. In addition, glycine uptake inhibiting activity (IC50) was calculated from an inhibition curve for the concentration of the test substance ranging from 10^−9 to 10^−5 M.
It should be noted that ALX5407 is a HCl salt of N-[(3R)-3-([1,1′-biphenyl]-4-yloxy)-3-(4-fluorophenyl)propyl]-N-methylglycine.
Incidentally, Compound 56 which is recited as 2HCl salt in the above Table 1-6 was subjected to measurement as its free form in the Glycine Uptake Inhibition Experiment.

The target in series [2] is T2, P-glycoprotein (P-gp), Human MDR1 (Homo sapiens, UniProt P08183).
T2 construct: expressed in transfected cells; host or cells: LLC-GAS-COL 300 cells (derived from pig kidney LLC-PK1)
The series is described as follows: Test for recognizability of P-gp substrate (LLC-GAS-COL 300 cells, Transwell). Format: in vitro ADME. To be noted: 10 μM; LLC-GAS-COL 300 cells (Human MDR1 in LLC-PK1); criteria of Nature Reviews Drug Discovery (2010) 9, 215-236. From the text:
In order that drugs acting on the central nervous system will develop their efficacy, their passage from the blood to the brain is generally important. While various efflux transporters are present at the blood-brain barrier to control this passage of drugs, P-glylcoprotein (P-gp) is a typical example and inhibits the passage to the brain of any drugs that serve as the substrate for P-gp. Therefore, in the development of pharmaceuticals, nonrecognizability of a candidate drug as the substrate for P-gp is the key to its passage to the brain.
A test for recognizability of P-gp substrate was performed in accordance with a modified version of the methods described in J Pharmacol. Exp. Ther. (1992) Vol. 263, No. 2, 840-845 and J Biol. Chem. (1992) Vol. 267, No. 34, 24248-24252. To be more specific, LLC-GAS-COL 300 cells (Human MDR1 expressing system derived from pig kidney derived, cultured renal epithelial cell line LLC-PK1) were cultured for 4 days on a Transwell and replaced by a Hank's balanced salt solution (HBSS) in each well just before the test. A solution of an assay compound (a DMSO solution of the compound as diluted with HBSS and adjusted to a final concentration of 10 μM) was added to the donor side of the LLC-GAS-COL 300 cells and a prescribed amount of HBSS was collected from the acceptor side at given time intervals and the concentration of the assay compound in the collected sample was measured by LC-MS/MS.
From the cumulative amount of the compound's permeation into the acceptor, the membrane permeability coefficient (×10^−6 cm/sec) was calculated for each of apical→basal mode and basal→apical mode and the recognizability of P-gp substrate was assessed in terms of the ratio between the two modes (efflux ratio).

Values joined by “and” are separate entries in the source; they are usually repeats but may differ in a detail not shown here. Identical values can stand only once.

T2 sequence (P08183 whole entry): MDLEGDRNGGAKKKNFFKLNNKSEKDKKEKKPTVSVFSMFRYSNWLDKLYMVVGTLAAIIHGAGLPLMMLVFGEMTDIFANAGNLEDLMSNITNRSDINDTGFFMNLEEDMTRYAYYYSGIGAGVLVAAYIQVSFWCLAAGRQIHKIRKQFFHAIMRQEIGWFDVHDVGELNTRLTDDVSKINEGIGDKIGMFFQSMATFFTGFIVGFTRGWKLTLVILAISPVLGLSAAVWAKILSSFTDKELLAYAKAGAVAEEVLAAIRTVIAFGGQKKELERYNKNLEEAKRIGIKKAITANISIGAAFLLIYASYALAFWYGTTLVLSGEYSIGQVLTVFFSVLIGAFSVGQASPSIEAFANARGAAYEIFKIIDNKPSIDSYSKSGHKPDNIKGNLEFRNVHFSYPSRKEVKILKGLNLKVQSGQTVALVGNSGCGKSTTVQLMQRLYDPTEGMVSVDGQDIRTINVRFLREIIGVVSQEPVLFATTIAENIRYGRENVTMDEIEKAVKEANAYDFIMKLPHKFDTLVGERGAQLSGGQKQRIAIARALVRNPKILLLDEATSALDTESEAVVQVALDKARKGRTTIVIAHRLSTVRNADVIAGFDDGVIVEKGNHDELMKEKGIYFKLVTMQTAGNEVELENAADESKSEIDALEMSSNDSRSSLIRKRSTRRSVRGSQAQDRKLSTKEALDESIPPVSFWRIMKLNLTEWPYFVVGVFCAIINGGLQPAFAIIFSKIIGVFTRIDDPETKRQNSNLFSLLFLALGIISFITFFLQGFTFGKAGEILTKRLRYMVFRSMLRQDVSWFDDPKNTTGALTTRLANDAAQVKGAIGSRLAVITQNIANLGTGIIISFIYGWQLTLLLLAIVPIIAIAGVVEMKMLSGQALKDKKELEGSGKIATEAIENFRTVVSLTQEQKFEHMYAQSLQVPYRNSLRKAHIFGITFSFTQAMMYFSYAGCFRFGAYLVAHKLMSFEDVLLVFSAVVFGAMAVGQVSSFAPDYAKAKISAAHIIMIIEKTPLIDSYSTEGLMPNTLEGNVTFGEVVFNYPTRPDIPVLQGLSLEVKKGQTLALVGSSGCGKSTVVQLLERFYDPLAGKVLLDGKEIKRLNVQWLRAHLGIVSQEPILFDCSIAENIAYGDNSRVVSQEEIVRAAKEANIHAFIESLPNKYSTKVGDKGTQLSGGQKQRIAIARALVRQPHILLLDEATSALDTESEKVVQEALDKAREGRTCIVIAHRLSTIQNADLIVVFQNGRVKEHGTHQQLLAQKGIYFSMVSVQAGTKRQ

As to `CCCN(Cc1cc(-c2ccccc2)ccn1)C(=O)c1cn(C)cn1` [Compound 5], the IC50 in series [1] was ≥ 1000 nM and 1400 nM. For `CC(C)N(Cc1ccc(F)c(-c2ccc(F)nc2)c1)C(=O)c1cn(C)cn1` [Compound 9], the “recognizability as P-gp substrate (from efflux ratio basal→apical / apical→basal)” value in series [2] is listed as “not recognizable as the substrate for P-gp”.

For the molecule `CC(C)N(Cc1ccc(F)c(-c2ccccn2)c1)C(=O)c1cn(C)cn1` [Compound 14], the “recognizability as P-gp substrate (from efflux ratio basal→apical / apical→basal)” value in series [2] was “not recognizable as the substrate for P-gp”. For the same molecule, the IC50 in series [1] is 18 nM. On to `CC(C)N(Cc1ccc(F)c(-c2cncc(F)c2)c1)C(=O)c1cn(C)cn1` [Compound 15], for which, in series [2], the “recognizability as P-gp substrate (from efflux ratio basal→apical / apical→basal)” value was “not recognizable as the substrate for P-gp”. For the molecule `CC(C)N(Cc1ccc(F)c(-c2cccc3ncccc23)c1)C(=O)c1cn(C)cn1` [Compound 24], in series [1], the half-inhibitory concentration (IC50) was ≥ 1000 nM.

Consider `Cc1n[nH]c(C)c1-c1cc(CN(C(=O)c2cn(C)cn2)C(C)C)ccc1F` [Compound 25], for which the IC50 in series [1] was ≥ 1000 nM.

On to `CC(C)N(Cc1ccc(F)c(-c2ncc[nH]2)c1)C(=O)c1cn(C)cn1` [Compound 29], for which, in series [1], the IC50 is ≥ 1000 nM. Consider `CC(C)N(Cc1ccnc(-c2ccc(F)cc2)c1)C(=O)c1cn(C)cn1` [Compound 31], for which the “recognizability as P-gp substrate (from efflux ratio basal→apical / apical→basal)” value in series [2] was “not recognizable as the substrate for P-gp”. As for `CC(C)N(Cc1ccnc(-c2ccccc2)c1)C(=O)c1cn(C)cn1` [Compound 36], the “recognizability as P-gp substrate (from efflux ratio basal→apical / apical→basal)” value in series [2] is “not recognizable as the substrate for P-gp”.

For the molecule `CC(C)N(Cc1ccnc(-c2ccc(F)cc2)c1)C(=O)c1c[nH]cn1` [Compound 42], in series [1], the half-maximal inhibitory concentration (IC50) is ≥ 1000 nM. On to `Cn1cnc(C(=O)N(CCC(F)(F)F)Cc2ccnc(-c3ccc(F)cc3)c2)c1` [Compound 52], for which the IC50 in series [1] is ≥ 1000 nM.

Regarding `CC(C)CN(Cc1ccnc(-c2ccc(F)cc2)c1)C(=O)c1cn(C)cn1` [Compound 54], the “recognizability as P-gp substrate (from efflux ratio basal→apical / apical→basal)” value in series [2] is “not recognizable as the substrate for P-gp”. With `CCn1cnc(C(=O)N(Cc2ccnc(-c3ccc(F)cc3)c2)C(C)C)c1` [Compound 56], the “recognizability as P-gp substrate (from efflux ratio basal→apical / apical→basal)” value in series [2] is “not recognizable as the substrate for P-gp”.

With `CC(C)N(Cc1ccnc(-c2cc(F)cc(F)c2)c1)C(=O)c1cn(C)cn1` [Compound 62], in series [2], the “recognizability as P-gp substrate (from efflux ratio basal→apical / apical→basal)” value is listed as “not recognizable as the substrate for P-gp”. On to `Cc1cccc(C)c1-c1cc(CN(C(=O)c2cn(C)cn2)C(C)C)ccn1` [Compound 63], for which the IC50 in series [1] is ≥ 1000 nM. For `CC(C)N(Cc1ccnc(-c2ccc(Cl)cc2)c1)C(=O)c1cn(C)cn1` [Compound 69], the “recognizability as P-gp substrate (from efflux ratio basal→apical / apical→basal)” value in series [2] is “not recognizable as the substrate for P-gp”. For `CC(C)N(Cc1ccc(F)c(-n2cccn2)c1)C(=O)c1cn(C)cn1` [Compound 73], the “recognizability as P-gp substrate (from efflux ratio basal→apical / apical→basal)” value in series [2] is given as “not recognizable as the substrate for P-gp”.

For the molecule `CC(C)N(Cc1ccc(F)c(-n2ccnc2)c1)C(=O)c1cn(C)cn1` [Compound 74], the IC50 in series [1] turned out to be 15 nM.

In the case of `Cn1cnc(C(=O)N(Cc2ccnc(-c3ccc(OC(F)(F)F)cc3)c2)C2CCC2)c1` [Compound 107], the IC50 in series [1] was found to be 3.5 nM. As to `CC(C)N(Cc1ccnc(-c2ccccc2OC(F)(F)F)c1)C(=O)c1cn(C)cn1` [Compound 111], the IC50 in series [1] was ≥ 1000 nM. Same read-out and setting: in the case of `Cn1cnc(C(=O)N(Cc2ccc(F)c(-c3ccc(F)nc3)c2)C2CCC2)c1` [Compound 120] it was 8 nM; in that of `Cc1cnn(-c2cc(CN(C(=O)c3cn(C)cn3)C(C)C)ccc2F)c1` [Compound 121], 160 nM.

Regarding `CC(C)N(Cc1ccnc(-c2ccc(OC(F)F)cc2)c1)C(=O)c1cn(C)cn1` [Compound 124], the “recognizability as P-gp substrate (from efflux ratio basal→apical / apical→basal)” value in series [2] was “not recognizable as the substrate for P-gp”. As to `Cc1cn(-c2cc(CN(C(=O)c3cn(C)cn3)C(C)C)ccc2F)c(C)n1` [Compound 132], the half-inhibitory concentration (IC50) in series [1] was ≥ 1000 nM.

For the molecule `CC(C)N(Cc1ccnc(-c2cc(F)ccc2C(F)(F)F)c1)C(=O)c1cn(C)cn1` [Compound 137], the IC50 in series [1] is ≥ 1000 nM. Take `CC(C)N(Cc1noc(-c2ccc(Cl)cc2)n1)C(=O)c1cn(C)cn1` [Compound 138]: the IC50 in series [1] is ≥ 1000 nM. For `CC(C)N(Cc1ccc(F)c(-c2ccc(F)nc2)c1)C(=O)c1c[nH]cn1` [Compound 141], the concentration for half-maximal inhibition (IC50) in series [1] is ≥ 1000 nM. Still for that read-out and setting: in the case of `Cc1cn(-c2cc(CN(C(=O)c3cn(C)cn3)C(C)C)ccc2F)cn1` [Compound 143] it was 64 nM; in that of `CC(C)N(Cc1ccnc(-c2ccc(OC(F)(F)F)cc2)c1)C(=O)c1c[nH]cn1` [Compound 146], ≥ 1000 nM. As to `CC(c1ccnc(-c2ccc(F)cc2)c1)N(C(=O)c1cn(C)cn1)C1CCC1` (stereo not shown) [Compound 153], the 50% inhibitory concentration (IC50) in series [1] amounted to 30 nM. Consider `Cn1cnc(C(=O)N(Cc2csc(-c3ccc(OC(F)(F)F)cc3)n2)C2CCC2)c1` [Compound 155], for which the IC50 in series [1] turned out to be 5.8 nM. In the case of `CN(C)c1ccc(-c2cc(CN(C(=O)c3cn(C)cn3)C3CCC3)ccc2F)cn1` [Compound 158], the “recognizability as P-gp substrate (from efflux ratio basal→apical / apical→basal)” value in series [2] is “not recognizable as the substrate for P-gp”. With `Cn1cnc(C(=O)N(Cc2nc(-c3ccc(OC(F)(F)F)cc3)no2)C2CCC2)c1` [Compound 160], the IC50 in series [1] was 330 nM.

As to `Cn1cnc(C(=O)N(Cc2ccc(F)c(-c3ccc(N4CCCC4)nc3)c2)C2CCC2)c1` [Compound 161], in series [1], the IC50 worked out at 12 nM. On to `Cn1cnc(C(=O)N(Cc2ccc(F)c(-c3cccnc3C(F)(F)F)c2)C2CCOCC2)c1` [Compound 168], for which the IC50 in series [1] was ≥ 1000 nM.

Turning to `Cn1cnc(C(=O)N(Cc2ccnc(-c3cc(F)c(F)cc3F)c2)C2CCC2)c1` [Compound 191], in series [1], the IC50 is 16 nM. In the case of `COCCN(Cc1ccnc(-c2cccc(OC(F)(F)F)c2)c1)C(=O)c1cn(C)cn1` [Compound 198], in series [2], the “recognizability as P-gp substrate (from efflux ratio basal→apical / apical→basal)” value is listed as “not recognizable as the substrate for P-gp”.

For `Cn1cnc(C(=O)N(Cc2ccc(F)c(-c3cc(C(F)(F)F)ncn3)c2)C2CCC2)c1` [Compound 208], in series [1], the IC50 was 14 nM. As for `Cn1cnc(C(=O)N(Cc2ccnc(-c3ccc(F)c(OC(F)F)c3)c2)C2CCC2)c1` [Compound 213], the IC50 in series [1] came to 3.7 nM.

One may read the IC50 as the concentration needed to halve the response being measured.
